Data from article PMC11090211 (Chemico-biological interactions, 2024).
Like-named read-outs stand apart in the source and are kept apart here.

What was measured:
H48Q yeast ADH [1] = molecular target: T1, H48Q yeast ADH (Saccharomyces cerevisiae, UniProt P00330, H49Q); assay: Inactivation by diethyl pyrocarbonate; format: biochemical; conditions: pH 8.0, 30 °C
H44R/H48Q yeast ADH [2] = molecular target: T2, H44R/H48Q yeast ADH (Saccharomyces cerevisiae, UniProt P00330, H45R/H49Q); assay: Inactivation by diethyl pyrocarbonate; format: biochemical; conditions: pH 8.0, 30 °C
T2 sequence (P00330 2-348 H45R/H49Q): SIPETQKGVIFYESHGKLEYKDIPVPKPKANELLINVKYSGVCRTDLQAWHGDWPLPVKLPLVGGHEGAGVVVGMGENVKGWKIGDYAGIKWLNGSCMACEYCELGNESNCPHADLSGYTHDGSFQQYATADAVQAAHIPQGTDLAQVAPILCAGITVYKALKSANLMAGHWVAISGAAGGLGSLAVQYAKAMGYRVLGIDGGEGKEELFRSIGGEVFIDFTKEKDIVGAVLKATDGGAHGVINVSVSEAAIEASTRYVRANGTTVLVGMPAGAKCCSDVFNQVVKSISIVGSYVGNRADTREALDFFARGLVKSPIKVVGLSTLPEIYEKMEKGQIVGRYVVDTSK

H44R yeast ADH [3] = molecular target: T3, H44R yeast ADH (Saccharomyces cerevisiae, UniProt P00330, H45R); assay: Inactivation by diethyl pyrocarbonate; format: biochemical; conditions: pH 8.0, 30 °C
T3 sequence (P00330 2-348 H45R): as the sequence (P00330 2-348 H45R/H49Q) above, with Q48H counted along it

wild-type yeast ADH [4] = molecular target: T4, wild-type yeast ADH (Saccharomyces cerevisiae, UniProt P00330); conditions: cited from earlier work
T4 sequence (P00330 1-348): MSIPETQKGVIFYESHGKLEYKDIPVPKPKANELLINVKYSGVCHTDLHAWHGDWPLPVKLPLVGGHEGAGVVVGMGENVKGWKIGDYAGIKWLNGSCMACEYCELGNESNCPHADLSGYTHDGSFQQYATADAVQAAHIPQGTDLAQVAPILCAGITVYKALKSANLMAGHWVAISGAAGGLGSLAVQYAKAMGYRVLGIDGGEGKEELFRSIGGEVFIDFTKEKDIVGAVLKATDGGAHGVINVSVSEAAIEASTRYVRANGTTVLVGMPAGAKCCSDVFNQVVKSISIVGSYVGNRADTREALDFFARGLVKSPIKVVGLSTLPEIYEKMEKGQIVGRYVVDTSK

wild-type yeast ADH [5] = molecular target: T4, wild-type yeast ADH; assay: Inactivation by diethyl pyrocarbonate; format: biochemical; conditions: pH 8.0, 30 °C
H44R/H48Q yeast ADH [6] = molecular target: T2, H44R/H48Q yeast ADH; format: biochemical
[7] = molecular target: T5, H44R/H48Q yeast alcohol dehydrogenase (Saccharomyces cerevisiae, UniProt P00330, H45R/H49Q)
T5 sequence (P00330 2-348 H45R/H49Q): as the sequence (P00330 2-348 H45R/H49Q) above

wild-type yeast ADH [8] = molecular target: T4, wild-type yeast ADH; conditions: cited from earlier work; remark: listed apart in the source
[9] = test system: wild-type yeast alcohol dehydrogenase; conditions: cited from earlier work
[10] = test system: H48Q yeast alcohol dehydrogenase; conditions: pH 7.3, 30 °C, cited from earlier work
[11] = test system: H44R yeast alcohol dehydrogenase; conditions: pH 7.3, 30 °C, cited from earlier work
H44R/H48Q yeast ADH [12] = molecular target: T2, H44R/H48Q yeast ADH; format: biochemical; conditions: for VD1, isotope effect for oxidation of ethanol: 550 mM ethanol, 2 mM NAD^+, single concentration, duplicate
[13] = molecular target: T5, H44R/H48Q yeast alcohol dehydrogenase; assay: biochemical
wild-type yeast ADH [14] = molecular target: T4, wild-type yeast ADH; conditions: ethanol or ethanol-d5 15–200 mM, 10 mM NAD^+, 30 °C, ref 6 and 9, cited from earlier work
H48Q yeast ADH [15] = molecular target: T1, H48Q yeast ADH; conditions: ethanol or ethanol-d5 15–200 mM, 10 mM NAD^+, 30 °C, ref 6 and 9, cited from earlier work
H44R yeast ADH [16] = molecular target: T3, H44R yeast ADH; conditions: ethanol or ethanol-d5 15–200 mM, 10 mM NAD^+, 30 °C, ref 6 and 9, cited from earlier work
[17] = 90 μM diethyl pyrocarbonate, 33 mM sodium phosphate buffer
[18] = after 90 μM diethyl pyrocarbonate
[19] = pH 7.3, 30 °C, 83 mM potassium phosphate, 40 mM KCl
[20] = read-out: Kiq, inhibition (dissociation) constant for NADH, pH 7.3, 30 °C, 83 mM potassium phosphate, 40 mM KCl
[21] = 83 mM potassium phosphate, 40 mM KCl
[22] = read-out: Kiq, inhibition (dissociation) constant for NADH, 83 mM potassium phosphate, 40 mM KCl
[23] = read-out: Kia, inhibition (dissociation) constant for NAD^+, 83 mM potassium phosphate, 40 mM KCl
[24] = read-out: Ki, CF3CH2OH, 83 mM potassium phosphate, 40 mM KCl

T1 sequence (P00330 2-348 H49Q): as the sequence (P00330 2-348 H45R/H49Q) above, with R44H counted along it

CCOC(=O)OC(=O)OCC [diethyl pyrocarbonate]
Inactivation constant (H48Q yeast ADH [1]; [17]): 25 M⁻¹ s⁻¹ | Residual activity (% of initial) (H48Q yeast ADH [1]; [18]): 55 % of initial | Inactivation constant (H44R/H48Q yeast ADH [2]; 120 μM diethyl pyrocarbonate, 33 mM sodium phosphate buffer): 11 M⁻¹ s⁻¹ | Residual activity (% of initial) (H44R/H48Q yeast ADH [2]; after 120 μM diethyl pyrocarbonate): 64 % of initial | Inactivation constant (H44R yeast ADH [3]; [17]): 31 M⁻¹ s⁻¹ | Residual activity (% of initial) (H44R yeast ADH [3]; [18]): 30 % of initial | pK of the rate of inactivation by diethyl pyrocarbonate (wild-type yeast ADH [4]; enzyme-NADH complex): 8.7 | pK value of the rate of inactivation by diethyl pyrocarbonate (wild-type yeast ADH [4]; free enzyme): 7.1 | Inactivation constant (wild-type yeast ADH [5]; [17]): 180 M⁻¹ s⁻¹ | Residual activity (% of initial) (wild-type yeast ADH [5]; [18]): 3.1 % of initial

NC(=O)C1=CN([C@@H]2O[C@H](COP(=O)([O-])OP(=O)([O-])OC[C@H]3O[C@@H](n4cnc5c(N)ncnc54)[C@H](O)[C@@H]3O)[C@@H](O)[C@H]2O)C=CC1.[Na+].[Na+] [NADH]
pK of pH dependence of Kiq (H44R/H48Q yeast ADH [6]): 8.9 ± 0.2 | pK of pH dependence of V2/Etkq (H44R/H48Q yeast ADH [6]): 8.8 ± 0.1 | Kiq, limiting value ka (H44R/H48Q yeast ADH [6]; EH form): ka 7.9 ± 1.4 μM | V2/Etkq, limiting value ka (H44R/H48Q yeast ADH [6]; EH form): ka 16 ± 2 μM^−1s^−1 | rate constant for dissociation, calculated from V2Kiq/EtKq (H44R/H48Q yeast ADH [6]; essentially pH independent): 120 s⁻¹ | Kq, Michaelis constant for NADH [7, 19]: 42 pM | Ki [7, 20]: 3.5 µM | Kiq, limiting value ka (wild-type yeast ADH [8]; EH form): 15 ± 2 µM | V2/Etkq, limiting value (wild-type yeast ADH [8]): 32 ± 3 µM⁻¹ s⁻¹ | pK of pH dependence of Kiq (wild-type yeast ADH [8]): 7.4 ± 0.2 | pK of pH dependence of V2/Etkq (wild-type yeast ADH [8]): 7.8 ± 0.2 | Kq, Michaelis constant for NADH [9, 19]: 94 pM | Ki [9, 20]: 31 µM | Kq, Michaelis constant for NADH [10, 21]: 110 pM | Ki [10, 22]: 13 µM | Kq, Michaelis constant for NADH [11, 21]: 10 pM | Ki [11, 22]: 16 µM

CCCCO [1-butanol]
average isotope effect, butanol oxidation (H44R/H48Q yeast ADH [12]; 5 mM 1-butanol or 1-butanol-d9, 2 mM NAD^+, pH range from 6.5 to 10.5): 4.2 | Catalytic efficiency with butanol, fold lower than with ethanol [7]: about 20 fold | Km ([7]; 1-butanol): ~30 mM | Catalytic efficiency with butanol, fold lower than with ethanol [9]: about 20 fold

N=C([O-])c1ccc[n+]([C@@H]2O[C@H](COP(=O)(O)OP(=O)([O-])OC[C@H]3O[C@@H](n4cnc5c(N)ncnc54)[C@H](O)[C@@H]3O)[C@@H](O)[C@H]2O)c1.[Li+] [NAD^+]
pK of pH dependence of Kia (H44R/H48Q yeast ADH [6]): ~pH independent | pK of pH dependence of V1/EtKa (H44R/H48Q yeast ADH [6]): 8.03 ± 0.04 | Ki (H44R/H48Q yeast ADH [6]; read-out: Kia, at pH 7): 160 µM | Ka, Michaelis constant for NAD^+ [7, 19]: 320 µM | Kia, limiting value ka (wild-type yeast ADH [8]; EH form): 0.54 ± 0.06 mM | V1/EtKa (wild-type yeast ADH [8]; at pH 7): 1570 (at pH 7) mM^−1s^−1 | pK of pH dependence of Kia (wild-type yeast ADH [8]): 8.1 ± 0.2 | slope of pH dependence of V1/EtKa (wild-type yeast ADH [8]): −0.11 ± 0.02 | Ka, Michaelis constant for NAD^+ [9, 19]: 160 µM | Ki ([9]; read-out: Kia, inhibition (dissociation) constant for NAD^+, pH 7.3, 30 °C, 83 mM potassium phosphate, 40 mM KCl): 950 µM | Ka, Michaelis constant for NAD^+ [10, 21]: 100 µM | Ki [10, 23]: 410 µM | Ka, Michaelis constant for NAD^+ [11, 21]: 150 µM | Ki [11, 23]: 260 µM

OCC(F)(F)F [CF3CH2OH, 2,2,2-trifluoroethanol, reference compound]
Ki ([9]; read-out: Ki, CF3CH2OH, pH 7.3, 30 °C, 83 mM potassium phosphate, 40 mM KCl): 2500 µM | Ki [10, 24]: 33000 µM | Ki [11, 24]: 19000 µM | Ki [13]: 55000 µM

CC=O [acetaldehyde]
pK of pH dependence of V2/Et (H44R/H48Q yeast ADH [6]): 9.6 ± 0.1 | V2/Et, limiting value ka (H44R/H48Q yeast ADH [6]; EH form): ka 850 ± 60 s^−1 | V1/EtKp, limiting value ka (H44R/H48Q yeast ADH [6]; EH form, NADH and acetaldehyde): ka 32 ± 3 mM^−1s^−1 | pK of pH dependence of V1/EtKp (H44R/H48Q yeast ADH [6]; NADH and acetaldehyde): 9.5 ± 0.1 | isotope effect (for VD2/Kp), acetaldehyde reduction (H44R/H48Q yeast ADH [12]; 1 mM acetaldehyde with 0.15 mM NADH, over the pH range): ~ 2 | Kp, Michaelis constant for acetaldehyde [7, 19]: 22 mM | V2/Et, turnover number for acetaldehyde reduction [7, 19]: 1040 s⁻¹ | V2/Etkp, catalytic efficiency for acetaldehyde reduction [7, 19]: 47 mM⁻¹ s⁻¹ | V1/EtKp, limiting value ka (wild-type yeast ADH [8]; EH form, NADH and acetaldehyde): ka 3200 ± 200 mM^−1s^−1 | V2/Et, limiting value ka (wild-type yeast ADH [8]; EH form): 3600 ± 300 s⁻¹ | pK of pH dependence of V1/EtKp (wild-type yeast ADH [8]; NADH and acetaldehyde): 7.7 ± 0.1 | pK of pH dependence of V2/Et (wild-type yeast ADH [8]): 7.8 ± 0.2 | V2/EtkpKiq ([9]; NADH and acetaldehyde, pH 7.3, 30 °C): 77000 mM^−2 s^−1 | Kp, Michaelis constant for acetaldehyde [9, 19]: 0.74 mM | V2/Et, turnover number for acetaldehyde reduction [9, 19]: 1800 s⁻¹ | Ki ([9]; read-out: Kip, intercept inhibition constant, product inhibition studies, pH 7.3, 30 °C): 1500 µM | V2/EtkpKiq ([10]; NADH and acetaldehyde): 19000 mM^−2 s^−1 | Kp, Michaelis constant for acetaldehyde [10, 21]: 12 mM | V2/Et, turnover number for acetaldehyde reduction [10, 21]: 3000 s⁻¹ | V2/Etkp, catalytic efficiency for acetaldehyde reduction [10, 21]: 250 mM⁻¹ s⁻¹ | V2/EtkpKiq ([11]; NADH and acetaldehyde): 6100 mM^−2 s^−1 | Kp, Michaelis constant for acetaldehyde [11, 21]: 4.7 mM | V2/Et, turnover number for acetaldehyde reduction [11, 21]: 460 s⁻¹ | V2/Etkp, catalytic efficiency for acetaldehyde reduction [11, 21]: 98 mM⁻¹ s⁻¹

CCO [ethanol]
VD1, isotope effect for oxidation of ethanol (wild-type yeast ADH [14]; pH 6): 2.0 | VD1, isotope effect for oxidation of ethanol (wild-type yeast ADH [14]; pH 7): 1.8 | VD1, isotope effect for oxidation of ethanol (wild-type yeast ADH [14]; pH 8): 1.8 | VD1, isotope effect for oxidation of ethanol (wild-type yeast ADH [14]; pH 9): 1.4 | VD1, isotope effect for oxidation of ethanol (wild-type yeast ADH [14]; pH 10): 1.3 | VD1, isotope effect for oxidation of ethanol (H48Q yeast ADH [15]; pH 6): 3.9 | VD1, isotope effect for oxidation of ethanol (H48Q yeast ADH [15]; pH 7): 4.2 | VD1, isotope effect for oxidation of ethanol (H48Q yeast ADH [15]; pH 8): 3.3 | VD1, isotope effect for oxidation of ethanol (H48Q yeast ADH [15]; pH 9): 2.9 | VD1, isotope effect for oxidation of ethanol (H48Q yeast ADH [15]; pH 10): 2.3 | pK of pH dependence of V1/EtKb (H44R/H48Q yeast ADH [6]): 8.5 ± 0.1 | pK1 of pH dependence of V1/Et (H44R/H48Q yeast ADH [6]; deprotonation of H2E, NAD^+ and ethanol): 7.0 ± 0.2 | pK2 of pH dependence of V1/Et (H44R/H48Q yeast ADH [6]; deprotonation of HE, NAD^+ and ethanol): 9.2 ± 0.3 | VD1, isotope effect for oxidation of ethanol (H44R/H48Q yeast ADH [12]; pH 6 (MES)): 2.8 | VD1, isotope effect for oxidation of ethanol (H44R/H48Q yeast ADH [12]; pH 7 (MOPS)): 4.2 | VD1, isotope effect for oxidation of ethanol (H44R/H48Q yeast ADH [12]; pH 8 (TAPS)): 2.9 | VD1, isotope effect for oxidation of ethanol (H44R/H48Q yeast ADH [12]; pH 9 (TAPS)): 2.3 | VD1, isotope effect for oxidation of ethanol (H44R/H48Q yeast ADH [12]; pH 10 (CAPSO)): 1.8 | V1/Et, turnover number for ethanol oxidation [7, 19]: 24 s⁻¹ | KbKia/Ka, slope inhibition constant ([7]; product inhibition studies, pH 7.3, 30 °C): 36 mM | VD1, isotope effect for oxidation of ethanol (H44R yeast ADH [16]; pH 6): 3.5 | VD1, isotope effect for oxidation of ethanol (H44R yeast ADH [16]; pH 7): 1.7 | VD1, isotope effect for oxidation of ethanol (H44R yeast ADH [16]; pH 8): 1.2 | VD1, isotope effect for oxidation of ethanol (H44R yeast ADH [16]; pH 9): 1.1 | VD1, isotope effect for oxidation of ethanol (H44R yeast ADH [16]; pH 10): 1.1 | V1/EtKb, limiting value ka (wild-type yeast ADH [8]; EH form): 3500 ± 900 M⁻¹ s⁻¹ | pK of pH dependence of V1/Et (wild-type yeast ADH [8]): 7.3 ± 0.1 | pK of pH dependence of V1/EtKb (wild-type yeast ADH [8]): 7.8 ± 0.2 | V1/Et, turnover number for ethanol oxidation [9, 19]: 360 s⁻¹ | V1/Et, turnover number for ethanol oxidation [10, 21]: 30 s⁻¹ | V1/Et, turnover number for ethanol oxidation [11, 21]: 60 s⁻¹
